Reference: article PMC9820592, “Novel Chiral Ru(II) Complexes as Potential c-myc G-quadruplex DNA Stabilizers Inducing DNA Damage to Suppress Triple-Negative Breast Cancer Progression” (International Journal of Molecular Sciences, 2022)

Columns and labels:
[1] = tested on: A549 cells; assay: MTT assay, A549 cells; format: cell-based, human; conditions: 72 h, read-out: Inhibitory Effect (IC50/μM) A549
Protocol: (§1) Liver cancer HepG2 cells, lung cancer A549 cells, breast cancer MCF-7 and MDA-MB-231 cells, human nasopharyngeal carcinoma CNE-1 cells, and human immortalized keratinocyte HaCaT cells were seeded in 96-well plates (5 × 10^3 cells per well) and cultured at 37 °C and 5% CO2 for 24 h. Cells were treated with different concentrations of the complexes (0, 1.5625, 3.125, 6.25, 12.5, 25, 50, and 100 µM) for 72 h. After adding 20 µL MTT (5 mg/mL) solution to each well, the cells were incubated for 4 h, and then 150 µL DMSO was added to each well. The optical density of each well was detected by a microplate reader at a wavelength of 570 nm. The cell survival rate (%) = A(experimental group)/A(control group) × 100%, and the IC50 value was analyzed and calculated based on the survival rate.

[2] = tested on: HepG2 cells; assay: MTT assay, HepG2 cells; format: cell-based, human; conditions: 72 h, read-out: Inhibitory Effect (IC50/μM) HepG2
Protocol: as §1

[3] = tested on: MDA-MB-231 cells; assay: MTT assay, MDA-MB-231 cells; format: cell-based, human; conditions: 72 h, read-out: Inhibitory Effect (IC50/μM) MDA-MB-231
Protocol: as §1

[4] = tested on: MCF-7 cells; assay: MTT assay, MCF-7 cells; format: cell-based, human; conditions: 72 h, read-out: Inhibitory Effect (IC50/μM) MCF-7
Protocol: as §1

[5] = tested on: HaCaT cells; assay: MTT assay, normal HaCaT keratinocytes; format: cell-based; conditions: 72 h, normal human keratinocytes, read-out: Inhibitory Effect (IC50/μM) HaCaT
Protocol: as §1

[6] = tested on: CNE-1 cells; assay: MTT assay, CNE-1 cells; format: cell-based, human; conditions: 72 h, read-out: Inhibitory Effect (IC50/μM) CNE-1
Protocol: as §1

[7] = tested on: MDA-MB-231 cells; assay: EdU proliferation assay; format: cell-based, human; conditions: control 50.2%
Protocol: The inhibitory effect of the chiral DPPZ-based Ru(II) complexes (Λ/Δ−1−3) was assessed against different human tumor cancer cells, such as breast cancer MCF-7, MDA-MB-231, lung cancer A549, liver carcinoma HepG2, nasopharyngeal carcinoma CNE-1, and human normal keratinocyte HaCaT cells, by MTT assay. […] Moreover, the inhibition of MDA-MB-231 cell proliferation by Δ−3 was detected by using an EdU (5-ethynyl-2′-deoxyuridine) staining kit, and EdU was incorporated into newly synthesized DNA in the sample cells. The red fluorescent azide is small enough to diffuse freely through native tissues and DNA, and it covalently cross-links to the EdU in a “click” chemistry reaction.

[8] = tested on: c-myc G-quadruplex DNA; assay: FRET melting assay; format: binding, human; conditions: free DNA Tm 59.5 °C
Protocol: Carboxy fluorescein (FAM) and 6-carboxytetramethyl rhodamine (TAMRA) double fluorescent-labeled c-myc G4 DNA (5′−FAM-TGAGGGTGGGAGGGGTAA-TAMRA−3′) were heated to 95 °C in Tris-HCl-KCl buffer (containing 10 mM Tris-HCl, 100 mM KCl, pH 7.4) for 5 min and slowly cooled to room temperature. To ds26, double-stranded DNA ([…]) is a competitive binder, research Λ/Δ−3 with c-myc G4 selectivity binding ability of DNA. A Bio-Radiq5 real-time PCR detection system was used to measure the fluorescence melting curve. Approximately 1 μM (5 μL) FPU22T was mixed with a series of 5 μL compound solutions of different concentrations, and 15 μLTris-HCl-KCl buffer was added to the PCR 8 tube to obtain a total volume of 25 μL. A real-time fluorescence quantitative PCR instrument was used, and incubation was performed at 30 °C for 30 min. The program temperature range was set to 30–95 °C at a temperature interval of 1 °C, and recording was performed after balancing for 30 s to detect the fluorescence value of FAM. The conditions of the reaction system were similar to those of the FRET melting point test except that different concentrations of ds26 were added.

[9] = tested on: c-myc G-quadruplex DNA; assay: PCR-stop assay; format: biochemical, human; conditions: Taq polymerase
Protocol: In this study, c-myc G4 DNA and its reverse complementary sequence c-myc rev were heated to 95 °C for 5 min, allowed to cool to room temperature, and incubated at 4 °C overnight. The system was supplemented with dNTPs and Taq polymerase for PCR amplification; heated at 95 °C for 3 min, 94 °C for 30 s, and 58 °C for 30 s, with an extension at 72 °C for 30 s (30 cycles); and analyzed by 15% nondenatured polyacrylamide gel electrophoresis and silver staining.

[10] = tested on: MDA-MB-231 cells; assay: ICP detection of Ru content in cells; format: cell-based, human; conditions: 24 h, control 0.4
Protocol: MDA-MB-231 cells were seeded in 10 cm cell culture dishes. After cell adherence, the cells were treated with the drug (0, 2.5, 5, and 10 μM) for 24 h. After 24 h, the cells were washed with PBS three times and collected by trypsin. The number of collected cells was counted by a cell counter. Then, the cells were digested in 1 mL HNO3 solution by microwave digestion at 120 °C for 3 min, and 1 mL of this solution was transferred to a 5 mL volumetric flask, diluted with distilled water to volume, and mixed. The Ru content of these solutions was analyzed by an ICP optical emission spectrometer (NCS, Plasma 2000). All measurements were repeated three times.

Compound	IC50 [1] [µM]	IC50 [2] [µM]	IC50 [3] [µM]	IC50 [4] [µM]	IC50 [5] [µM]	IC50 [6] [µM]	proliferation rate (EdU) ([7]; 10 μM) [%]	proliferation rate (EdU) ([7]; 20 μM) [%]	proliferation rate (EdU) ([7]; 40 μM) [%]	ΔTm ([8]; complex 0.5 μM)	ΔTm ([8]; complex 1.0 μM) [°C]	minimum concentration necessary for effective inhibition (PCR products) [9] [µM]	Ru content in cells ([10]; 2.5 μM) [ng/mL per 1 × 10^4 cells]	Ru content in cells ([10]; 5 μM) [ng/mL per 1 × 10^4 cells]	Ru content in cells ([10]; 10 μM) [ng/mL per 1 × 10^4 cells]
Δ-[Ru(bpy)2(BrDPPZ)](ClO4)2 [Δ−2]	89.9 ± 11.3	> 100	94.5 ± 9.1	> 100	> 100	> 100	–	–	–	–	–	–	–	–	–
Λ-[Ru(bpy)2(BrDPPZ)](ClO4)2 [Λ−2]	91.5 ± 10.8	> 100	92.1 ± 12.1	> 100	> 100	> 100	–	–	–	–	–	–	–	–	–
N.N.[Cl][Pt][Cl] [Cis-platin, cisplatin, reference compound]	9.9 ± 0.25	12.7 ± 0.7	25.9 ± 1.9	14.27 ± 0.07	7.1 ± 0.5	–	–	–	–	–	–	–	–	–	–
Λ-[Ru(bpy)2(3-NBEDPPZ)](ClO4)2 [Λ−3]	55.4 ± 2.4	74.8 ± 2.4	53.5 ± 1.7	–	> 100	> 100	34.0	27.5	11.3	approximately 2.2 °C	~4.9	5	0.56	1.44	2.47
Δ-[Ru(bpy)2(DPPZ)](ClO4)2 [Δ−1]	> 100	> 100	> 100	> 100	> 100	> 100	–	–	–	–	–	–	–	–	–
Λ-[Ru(bpy)2(DPPZ)](ClO4)2 [Λ−1]	> 100	> 100	60.8 ± 7.41	> 100	> 100	> 100	–	–	–	–	–	–	–	–	–
